Laboratory results published in patent US10072051B2, “Anti-inflammatory lipopeptide and preparing method and application thereof” (EAST CHINA NORMAL UNIVERSITY, priority 2012, dated 2018).
Entries after “also recorded” stand apart in the source; their conditions may differ.

Assays:
Assay type in all cases: cell-based
keratinocytes (NHEK) = assay: OVA-stimulated keratinocytes (NHEK), real-time RT-PCR; details: NHEKs treated with PPARγ inhibitor
Protocol: To mimics the condition of atopic dermatitis keratinocytes was stimulated by ovalbumin (OVA). To test the inhibitory effect of the lipopeptide on inflammatory response in atopic dermatitis, PBS, OVA, lipopeptide, lipopeptide plus OVA were used to stimulate keratinocytes (NHEK) and RNA was extracted after 24-hour stimulation. The expression of TNF-α and IL-6 was analyzed by real-time RT-PCR.

NHEKs = assay: poly(I:C)-induced TNF-α and IL-6 expression in NHEKs, real-time RT-PCR
Protocol: NHEKs were seeded in 24-well plates to grow to 70˜80% confluence, 2 ug/ml poly(I:C) were added. Different concentrations of the lipopeptide as Formula (1) in Example 1 were used to treat NHEKs. After 24 h, total RNA was extracted and cDNA was generated to detect the TNF-α and IL-6 expression by using real-time RT-PCR. […]

β-catenin = β-catenin translocation into the nucleus in NHEKs; details: LiCl, nucleocytoplasmic separation
p65 [1] = assay: p65 phosphorylation in NHEKs, Western blot; details: poly(I:C) alone, 4 hours and 12 hours
Protocol: NHEKs were treated with PBS, poly(I:C), lipopeptide, poly(I:C) with lipopeptide for 4 hours or 12 hours. And then RIPA lysate was added to lyse the cell. The protein concentration was detected by using BCA protein assay kit, and 40 ug of proteins were separated by SDS-PAGE. The effects of the lipopeptide on p65 phosphorylation were detected by Western blot.

PPAR-γ and p65 = assay: interaction between PPAR-γ and p65 in NHEKs, co-immunoprecipitation; details: poly(I:C) 4 hours or 12 hours, immunoprecipitation with p65 antibody
Protocol: Example 4 illustrates that poly(I:C) can induce p65 phosphorylation and translocation, and poly(I:C) induces the inflammatory response through PPAR-γ. The aim of Example 5 is to illustrate the interaction between the translocated p65 and PPAR-γ in the nucleus. NHEKs were treated with poly(I:C) for 4 hours or 12 hours. Whole-cell extracts were prepared by using lysis buffer containing NP40 and incubated with the p65 antibody at 4° C. for overnight. Protein AG beads were added and incubated at 4° C. for 1-2 hours. Beads were then washed twice with washing buffer. The immunoprecipitates were eluted with 20 ul 2× sodium dodecyl sulfate (SDS) loading buffer and separated by PAGE. The proteins were transferred to nitrocellulose membrane and probed with PPAR-γ antibody.

p65 [2] = assay: p65 translocation into the nucleus in NHEKs (immunofluorescence, Western blot of nuclear proteins); details: poly(I:C) alone; for p65 translocation into the nucleus: immunofluorescence
Protocol: NHEKs were treated with PBS or poly(I:C) for 4 hours, and fixed with formaldehyde for 15 min followed by adding ice-cold 0.25% TritonX-100 and hydrogen peroxide. Cells were incubated with anti-p65 antibody at 4° C. for overnight after blocked with BSA for 0.5 hour. Next day, the cells were incubated with the second antibody (FITC-goat anti Rabbit IgG) and visualized under the microscope.
NHEKs were treated with PBS, lipopeptide, poly(I:C) with or without lipopeptide for 12 hours, and fixed with formaldehyde for 15 min followed by adding ice-cold 0.25% TritonX-100 and hydrogen peroxide. Cells were stained with anti-p65 antibody for overnight after blocked with BSA for 0.5 h. Then the cells were incubated with the second antibody (FITC-goat anti Rabbit IgG) and visualized under the microscope.
NHEKs were treated with PBS, poly(I:C), lipopeptide, poly(I:C) with lipopeptide for 12 hours. Proteins from nucleus were isolated and separated by PAGE. The p65 in the nucleus was detected by Western blot. […] Thus the lipopeptide has no effect on poly(I:C)-induced p65 translocation into the nucleus.

[3] = NHEKs treated with poly(I:C) alone, 24 h

O=C(Nc1ccccc1)c1cc([N+](=O)[O-])ccc1Cl [GW9662]
OVA-induced expression of inflammatory factor (keratinocytes (NHEK)): significantly decreased
expression of IL-6 induced by poly(I:C) (NHEKs; NHEKs, 24 h): significantly inhibited
expression of TNF-α induced by poly(I:C) (NHEKs; NHEKs, 24 h): significantly inhibited

[Cl-].[Li+] [LiCl]
β-catenin translocation (β-catenin): induces
poly(I:C)-induced inflammatory response (NHEKs; NHEKs, 24 hours): inhibits

N.S=C(S)N1CCCC1 [PDTC]
expression of IL-6 induced by poly(I:C) (NHEKs; NHEKs, 24 h): inhibited
expression of TNF-α induced by poly(I:C) (NHEKs; NHEKs, 24 h): inhibited

poly(I:C)
p65 phosphorylation (p65 [1]): significantly induces
interaction between PPAR-γ and P65 (PPAR-γ and p65): significantly induces
p65 translocation into the nucleus (p65 [2]; 4 hours): obviously induces
level of p65 in the nucleus (p65 [2]; 12 hours, Western blot): significantly increases
p65 translocation into the nucleus (p65 [2]; 12 hours): obviously induces
IL-6 expression (NHEKs; [3]): dramatically induces; also recorded: dramatically increases
TNF-α expression (NHEKs; [3]): dramatically induces; also recorded: dramatically increases
